Patent US10344001B2, “Azolylacryloyl derivatives as therapeutic agents for sickle cell disease” (VIRGINIA COMMONWEALTH UNIVERSITY, priority 2015, dated 2019)

Key:
[1] = test system: SS cells (sickle red blood cells); assay: RBC morphological antisickling study under hypoxic condition; type: cell-based, human; settings: 2 mM compound, 1 hr under air, then 4% oxygen/96% nitrogen at 37° C. for 5 hrs; for inhibition at 2000 µM: Homo sapiens, Erythrocyte, read-out: Reduction (inhibition) of RBC sickling
Description: (§1) De-identified, leftover EDTA venous blood samples from patients with SCD who visited The Children's Hospital of Philadelphia for routine clinic visits, were obtained after informed consent and used for antisickling study. Normal whole blood was collected from adult donors at the Virginia Commonwealth University after informed consent and used for oxygen equilibrium curve study. Hb was purified from discarded normal blood samples following published procedure and used for OEC study^34. The use of these human samples is in accordance with regulations of the IRB for Protection of Human Subjects.
KAUS-38 and KAUS-39 at 2 mM concentrations were tested for their abilities to prevent RBC sickling under hypoxic condition following previously reported assay^20. Briefly SS cells were suspended in Hemox buffer (TCS Scientific Corp, Southampton, Pa.), pH 7.4, that contained 10 mM glucose and 0.2% bovine serum albumin. The solution was incubated under air in the absence (control) or presence of […] 2 mM concentration of test compound at 37° C. for 1 hr. Following, the suspension was incubated under hypoxic condition (4% oxygen/96% nitrogen) at 37° C. for 5 hrs. The suspension was fixed with 2% glutaraldehyde solution without exposure to air and then subjected to microscopic morphological analysis as previously reported […]

[2] = Reactivity toward free L-cysteine (UPLC-MS of compound and adduct); settings: incubated with L-Cys for 3 hours; for Ratio of Cpd/Adduct (Adduct peak): share of L-cysteine adduct peak; for Ratio of Cpd/Adduct (Compound peak): share of unreacted compound peak; for Reactivity with L-Cys (adduct share): values in text
Description: The above synthesized KAUS compounds were expected to covalently bind to Hb through a Michael addition reaction with the βCys93 at the surface of the protein to effect their allosteric and antisickling activities. We therefore investigated L-Cys conjugates with KAUS-28, KAUS-29, KAUS-33, KAUS-38 and KAUS-39 with ECA as a positive control using UPLC-MS analysis as previously described^20 with an Acquity H-Class UPLC which is connected to a PDA detector and an Acquity TQD detector. The column used was an Acquity UPLC BEH C18 1.7 μm, 2.1×50 mm, with a Vanguard pre-column attached. Solvent A consisted of water with 0.02% formic acid, while solvent B consisted of 90:10 acetonitrile:water with 0.02% formic acid. A gradient run was performed such that solvent B was increased from 0% B to 100% B from time 0-5 mins, followed by 3 minute wash at 100% B and then a return and re-equilibration at 100% A in the next 4 mins. The flow rate was maintained at 0.5 ml/min throughout the run. 2 μL of sample was injected per run. […] The eluent was then introduced into the TQD detector. The TQD detector was set at positive ionization mode with a capillary voltage of 3.20 kV, cone voltage of 20 V, extractor voltage of 1 V, and RF lens voltage of 0.1 V. The source temperature was set at 150° C., while the desolvation temperature was set at 350° C. and the desolvation and cone gas flows were set at 650 and 50 L/hr respectively. Scans were made from 100-700 m/z with scan duration of 0.5 seconds to obtain mass spectra at different time points.

Hb in normal whole blood = target: T1, Hb in normal whole blood (Homo sapiens, UniProt P68871+P69905); assay: Oxygen equilibrium curve (OEC) study in normal whole blood, multipoint tonometry; type: cell-based; settings: hematocrit 20%, 1.5 h at 37° C.
T1 construct: Normal whole blood was collected from adult donors at the Virginia Commonwealth University; endogenous in cells; host or cells: erythrocytes in normal adult human whole blood (hematocrit 20%)
T1 sequence (P69905 2-142 limits assumed): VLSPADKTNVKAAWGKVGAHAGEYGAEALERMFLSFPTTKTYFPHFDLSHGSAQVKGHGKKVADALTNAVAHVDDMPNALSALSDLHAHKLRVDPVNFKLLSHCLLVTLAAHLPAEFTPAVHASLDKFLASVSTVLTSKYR
T1 sequence (P68871 2-147 limits assumed): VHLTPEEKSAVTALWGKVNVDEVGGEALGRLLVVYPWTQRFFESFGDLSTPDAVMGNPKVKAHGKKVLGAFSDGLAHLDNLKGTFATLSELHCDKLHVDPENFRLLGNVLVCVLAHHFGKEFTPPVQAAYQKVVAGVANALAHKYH
Description: as §1
The ability of the KAUS compounds to left-shift the OEC (stabilize the R-state and/or destabilize the T-state) and increase the oxygen affinity of Hb in normal whole blood or free human hemoglobin was determined by multipoint tonometry as previously reported^20. First, cell free normal human hemoglobin (1 mM) or normal whole blood (hematocrit of 20%) was incubated with 1 mM or 2 mM final test compound (KAUS-28, KAUS-29, KAUS-33, KAUS-38 or KAUS-39) for 1.5 h at 37° C. Following incubation, the mixture was equilibrated in a tonometer with oxygen tensions of 6, 20 and 60 mmHg for 10 min each, and pO2 (mmHg) and sO2 (%) values were measured thereafter using ABL 700 series automated blood gas analyzer (Radiometer America, Inc., Westlake, Ohio). The measured values of pO2 and sO2 at each oxygen tension level were then subjected to a non-linear regression analysis using the program Scientist (Micromath, Salt Lake City, Utah) to calculate P50 and the Hill coefficient (N) values. Time-dependent OEC studies (1 hr, 4 hr, 8 hr and 12 hr) were also performed for KAUS-28, KAUS-33, KAUS-38, and KAUS-39 at final compound concentration of 2 mM. ECA and the previously studied azolylacryloyl-carboxylate derivative, KAUS-15 were used as positive controls. Compounds were dissolved in DMSO to make 100-250 mM stock solutions, and DMSO was used in all control samples. All OEC studies were performed in duplicates.

[3] = target: T2, cell free normal human hemoglobin (Homo sapiens, UniProt P68871+P69905); assay: Oxygen equilibrium curve (OEC) study with cell free hemoglobin, multipoint tonometry; type: biochemical; settings: cell free normal human hemoglobin 1 mM; 1 mM or 2 mM compound
T2 construct: Hb was purified from discarded normal blood samples following published procedure and used for OEC study; from tissue; host or cells: discarded normal human blood samples
T2 sequence (P69905 2-142 limits assumed): as the sequence (P69905 2-142 limits assumed) above
T2 sequence (P68871 2-147 limits assumed): as the sequence (P68871 2-147 limits assumed) above
Description: as §1
The ability of the KAUS compounds to left-shift the OEC (stabilize the R-state and/or destabilize the T-state) and increase the oxygen affinity of Hb in normal whole blood or free human hemoglobin was determined by multipoint tonometry as previously reported^20. […] Following incubation, the mixture was equilibrated in a tonometer with oxygen tensions of 6, 20 and 60 mmHg for 10 min each, and pO2 (mmHg) and sO2 (%) values were measured thereafter using ABL 700 series automated blood gas analyzer (Radiometer America, Inc., Westlake, Ohio). The measured values of pO2 and sO2 at each oxygen tension level were then subjected to a non-linear regression analysis using the program Scientist (Micromath, Salt Lake City, Utah) to calculate P50 and the Hill coefficient (N) values. […]

Compound | inhibition at 2000 µM [1] [%] | Ratio of Cpd/Adduct (Adduct peak) [2] | Ratio of Cpd/Adduct (Compound peak) [2] | OEC effect (increase of Hb affinity for oxygen, left shift) (Hb in normal whole blood; 1 mM compound) [%] | OEC effect (increase of Hb affinity for oxygen, left shift) (Hb in normal whole blood; 2 mM compound) [%] | Reduction (inhibition) of RBC sickling [1] [%] | Effect on Hb affinity for oxygen in cell free Hb (in words) [3] | melting point | Reactivity with L-Cys (adduct share) [2] [%]
C=C(CC)C(=O)c1ccc(OCC(=O)O)c(Cl)c1Cl [Ethacrynic Acid, ethacrynic acid, reference compound] | 18 | 96.3 | 3.7 | 6.1 | 21.3 |  |  |  | 
O=C(O)CCCOc1ccc(C(=O)/C=C/c2ncc[nH]2)cc1Cl [KAUS-15, reference compound] |  |  |  | 1 | 7 | 6 | significantly more potent effect with cell free Hb than with whole blood |  | 
O=C(/C=C/c1ncc[nH]1)c1ccccc1 [KAUS-28, (E)-3-(1H-imidazol-2-yl)-1-phenylprop-2-en-1-one] |  | 6.9 | 93.1 |  |  |  |  |  | 
COc1cccc(C(=O)/C=C/c2ncc[nH]2)c1 [KAUS-29, (E)-3-(1H-imidazol-2-yl)-1-(3-methoxyphenyl)prop-2-en-1-one] |  | 2.1 | 97.9 | 8 | 14 |  |  |  | 
O=C(/C=C/c1ncc[nH]1)c1ccc(O)cc1 [KAUS-32, (E)-1-(4-hydroxyphenyl)-3-(1H-imidazol-2-yl)prop-2-en-1-one] |  |  |  |  |  |  |  | 250 to 253 °C | 
O=C(/C=C/c1ncc[nH]1)c1ccc(OC2CCCCO2)cc1 (stereo not shown) [KAUS-33, (E)-3-(1H-imidazol-2-yl)-1-(4-((tetrahydro-2H-pyran-2-yl)oxy)phenyl)prop-2-en-1-one] |  | 24.8 | 75.2 | 9.9 | 16.5 |  |  |  | 24.8
O=C(/C=C/c1ncc[nH]1)c1ccc(OCc2ccccc2)cc1 [KAUS-34, (E)-1-(4-(benzyloxy)phenyl)-3-(1H-imidazol-2-yl)prop-2-en-1-one] |  |  |  |  |  |  |  | > 250 °C (dec.) | 
COc1cc(C(=O)/C=C/c2ncc[nH]2)ccc1O [KAUS-36, (E)-1-(4-hydroxy-3-methoxyphenyl)-3-(1H-imidazol-2-yl)prop-2-en-1-one] |  |  |  |  |  |  |  | > 250 °C (dec.) | 
COc1ccc(C(=O)/C=C/c2ncc[nH]2)cc1 [KAUS-38, (E)-3-(1H-imidazol-2-yl)-1-(4-methoxyphenyl)prop-2-en-1-one] | 18 | 37.8 | 62.2 | 8 | 14 |  |  |  | 37.8
COc1ccc(C(=O)/C=C/c2ncc[nH]2)cc1OC [KAUS-39, (E)-1-(3,4-dimethoxyphenyl)-3-(1H-imidazol-2-yl)prop-2-en-1-one] | 5 | 27.2 | 72.8 |  |  |  |  | 222 to 223 °C | 27.2
